DBAASP
Converted amounts (≈) assume the structure as drawn. “And” between values parts separate entries of the source, which are not always exact repeats. Equal values may be shown once.

Legend:
Assay in all cases: ≥ marks a high value that may be exact or a test limit, other limits are often not marked, values filed in µg/mL are converted to µM
[1] = tested on: Escherichia coli ATCC 25922
[2] = tested on: Staphylococcus aureus NCTC 8325
[3] = tested on: Candida albicans ATCC 90028
[4] = tested on: Acinetobacter baumannii ATCC 19606
[5] = tested on: Pseudomonas aeruginosa ATCC 27853
[6] = tested on: Staphylococcus aureus ATCC 29213
[7] = tested on: Acinetobacter baumannii
[8] = tested on: Staphylococcus aureus ATCC 25923
[9] = tested on: Staphylococcus aureus MR
[10] = tested on: Escherichia coli UB1005
[11] = tested on: Salmonella enterica subsp. enterica serovar Typhimurium C77-31
[12] = tested on: Staphylococcus epidermidis ATCC 12228
[13] = tested on: Enterococcus faecalis ATCC 29212
[14] = tested on: Salmonella enterica subsp. enterica serovar Typhimurium ATCC 14028
[15] = tested on: Escherichia coli
[16] = tested on: Klebsiella pneumoniae ATCC 13883
[17] = tested on: Streptococcus pyogenes ATCC 19615
[18] = tested on: Bacillus subtilis
[19] = tested on: Staphylococcus aureus ATCC 33591

Row | Compound | MIC [1] | MIC [2] | MIC [5] | MIC [6] | MIC [8] | MIC [10] | MIC [11] | MIC [12] | MIC [13] | other results
1 | CC[C@H](C)[C@@H]1NC(=O)[C@H](C)NC(=O)[C@@H](NC(=O)[C@H](Cc2ccccc2)NC(=O)[C@@H](NC(=O)[C@H](CCCCN)NC(=O)[C@@H]2CCCN2C(=O)[C@H](CC(C)C)NC(=O)[C@H](Cc2ccccc2)NC(=O)[C@H](CC(N)=O)NC(=O)[C@H](C)NC(=O)[C@H](C)NC(=O)[C@H](CCSC)NC(=O)CNC(=O)[C@H](C)NC(=O)[C@@H](NC(=O)[C@H](Cc2ccccc2)NC(=O)[C@@H]2CCCN2C(=O)[C@H](CC(C)C)NC(=O)[C@@H](N)Cc2ccccc2)[C@@H](C)CC)[C@@H](C)CC)CSSC[C@@H](C(=O)O)NC(=O)[C@H](CCCCN)NC(=O)[C@H](CCCCN)NC(=O)[C@H](CO)NC1=O [FLPFIAGMAANFLPKIFCAISKKC] | 19 µM (≈ 50 µg/mL) | 8 µM (≈ 21 µg/mL) |  |  |  |  |  |  |  | 
2 | CC[C@H](C)[C@H](NC(=O)[C@H](CC(C)C)NC(=O)[C@H](CCCCN)NC(=O)[C@H](CO)NC(=O)[C@@H](NC(=O)[C@H](C)NC(=O)[C@H](CCCCN)NC(=O)[C@@H](NC(=O)[C@H](C)NC(=O)[C@H](Cc1cnc[nH]1)NC(=O)[C@@H]1CCCN1C(=O)[C@@H](NC(=O)[C@H](CC(C)C)NC(=O)[C@@H]1CCCN1C(=O)CNC(=O)[C@@H](NC(=O)[C@H](Cc1ccc(O)cc1)NC(=O)[C@H](CCCCN)NC(=O)[C@H](CCSC)NC(=O)[C@H](Cc1ccccc1)NC(=O)CN)[C@@H](C)CC)[C@@H](C)CC)C(C)C)[C@@H](C)CC)C(=O)O [GFMKYIGPLIPHAVKAISKLI] | 25 µM (≈ 57.4 µg/mL) | ≥ 50 µM |  |  |  |  |  |  |  | MIC [3]: ≥ 100 µM
3 | CC[C@H](C)[C@H](NC(=O)CN)C(=O)N[C@@H](Cc1ccccc1)C(=O)N[C@H](C(=O)N[C@@H](CCCCN)C(=O)N[C@H](C(=O)N[C@@H](CC(N)=O)C(=O)N[C@@H](CCCCN)C(=O)N[C@@H](CCCCN)C(=O)N[C@@H](CCCCN)C(=O)N[C@@H](C)C(=O)N[C@@H](CCCCN)C(=O)N[C@H](C(=O)NCC(=O)N[C@H](C(=O)N[C@@H](Cc1ccccc1)C(=O)N[C@@H](CC(N)=O)C(=O)N[C@H](C(=O)N[C@H](C(=O)N[C@@H](CCCCN)C(=O)N[C@H](C(=O)N[C@H](C(=O)NCC(=O)N[C@@H](CCCCN)C(=O)N[C@@H](CCC(=O)O)C(=O)N[C@@H](C)C(=O)NCC(=O)N[C@@H](CCSC)C(=O)N[C@@H](CC(=O)O)C(=O)N[C@H](C(=O)N[C@H](C(=O)N[C@@H](CCCN=C(N)N)C(=O)N[C@@H](C)C(=O)NCC(=O)N[C@H](C(=O)N[C@@H](CC(=O)O)C(=O)N[C@H](C(=O)N[C@H](C(=O)N[C@@H](CO)C(=O)N[C@H]1CSSC[C@@H](C(=O)O)NC(=O)[C@H](CCC(=O)O)NC(=O)CNC(=O)[C@H](CCCCN)NC(=O)[C@H]([C@@H](C)CC)NC(=O)[C@H](CCCCN)NC1=O)[C@@H](C)CC)[C@@H](C)O)[C@@H](C)CC)[C@@H](C)CC)C(C)C)[C@@H](C)CC)[C@@H](C)O)[C@@H](C)CC)[C@@H](C)CC)C(C)C)[C@@H](C)O)[C@@H](C)CC)[C@@H](C)O [GIFTKINKKKAKTGVFNIIKTIGKEAGMDVIRAGIDTISCKIKGEC] | 1 µM (≈ 4.94 µg/mL) | 15 µM (≈ 74.1 µg/mL) |  |  |  |  |  |  |  | 
4 | CC[C@H](C)[C@H](NC(=O)CNC(=O)[C@H](CCC(N)=O)NC(=O)[C@H](CC(C)C)NC(=O)[C@H](CC(N)=O)NC(=O)[C@H](CC(C)C)NC(=O)[C@H](Cc1ccccc1)NC(=O)CNC(=O)[C@H](Cc1cnc[nH]1)NC(=O)[C@H](CCCCN)NC(=O)[C@@H](N)CCCN=C(N)N)C(=O)N[C@@H](Cc1ccccc1)C(=O)NCC(=O)N[C@@H](CC(=O)O)C(=O)N[C@@H](Cc1ccc(O)cc1)C(=O)N[C@@H](Cc1ccc(O)cc1)C(=O)N[C@@H](Cc1cnc[nH]1)C(=O)N[C@@H](Cc1ccccc1)C(=O)N[C@@H](Cc1c[nH]c2ccccc12)C(=O)N[C@@H](Cc1cnc[nH]1)C(=O)N[C@@H](CCCN=C(N)N)C(=O)NCC(=O)N[C@H](C(=O)O)C(C)C [RKHGFLNLQGIFGDYYHFWHRGV] |  |  | > 100 µM |  | > 100 µM |  |  |  | > 100 µM | MIC [14]: > 100 µM; MIC [15]: 4 µM (≈ 11.4 µg/mL); MIC [16]: ≥ 100 µM; MIC [17]: ≥ 100 µM; MIC [18]: ≥ 100 µM
5 | CC(C)C[C@H](NC(=O)[C@H](CCCN=C(N)N)NC(=O)[C@H](Cc1c[nH]c2ccccc12)NC(=O)[C@H](CCCN=C(N)N)NC(=O)[C@@H](NC(=O)[C@H](Cc1c[nH]c2ccccc12)NC(=O)[C@H](Cc1c[nH]c2ccccc12)NC(=O)[C@H](CCCN=C(N)N)NC(=O)[C@H](CC(C)C)NC(=O)[C@H](Cc1c[nH]c2ccccc12)NC(=O)[C@@H](N)CCCN=C(N)N)[C@@H](C)O)C(=O)N[C@@H](CCCCN)C(N)=O [RWLRWWTRWRLK] | 4 µM (≈ 7.37 µg/mL) |  |  | 4 µM (≈ 7.37 µg/mL) | 2 µM (≈ 3.68 µg/mL) | 2 µM (≈ 3.68 µg/mL) | 4 µM (≈ 7.37 µg/mL) | 4 µM (≈ 7.37 µg/mL) |  | 
6 | NC(=O)[C@H](CCCN=C(N)N)NC(=O)[C@H](CCCN=C(N)N)NC(=O)[C@@H]1CCCN1C(=O)[C@H](CCCN=C(N)N)NC(=O)[C@H](CCCN=C(N)N)NC(=O)[C@H](CCCN=C(N)N)NC(=O)[C@H](Cc1c[nH]c2ccccc12)NC(=O)[C@H](CCCN=C(N)N)NC(=O)[C@H](CCCN=C(N)N)NC(=O)[C@H](CCCN=C(N)N)NC(=O)[C@H](CCCN=C(N)N)NC(=O)[C@H](CCCN=C(N)N)NC(=O)[C@H](Cc1c[nH]c2ccccc12)NC(=O)[C@H](CCCN=C(N)N)NC(=O)[C@H](CCCN=C(N)N)NC(=O)[C@H](Cc1ccc(O)cc1)NC(=O)[C@H](CCCN=C(N)N)NC(=O)[C@H](CCCN=C(N)N)NC(=O)[C@H](CCCN=C(N)N)NC(=O)[C@@H](N)Cc1c[nH]c2ccccc12 [WRRRYRRWRRRRRWRRRPRR] | 3.13 µM (≈ 9.95 µg/mL) |  | 3.13 µM (≈ 9.95 µg/mL) |  | 1.56 µM (≈ 4.96 µg/mL) |  |  |  |  | MIC [19]: 1.56 µM (≈ 4.96 µg/mL)

Second part, led by results:

Row | MIC [1] | MIC [2] | MIC [5] | MIC [6] | MIC [8] | MIC [10] | MIC [11] | MIC [12] | MIC [13] | Compound | other results
7 | 1.25 µM (≈ 1.98 µg/mL) |  | 1.25 µM (≈ 1.98 µg/mL) | 2.5 µM (≈ 3.96 µg/mL) | ≥ 202 µM |  |  |  |  | CC[C@H](C)[C@H](NC(=O)[C@H](CCCN=C(N)N)NC(=O)[C@H](CCCCN)NC(=O)[C@@H](NC(=O)[C@@H](NC(=O)[C@H](CCCN=C(N)N)NC(=O)[C@@H](N)CCCCN)[C@@H](C)CC)C(C)C)C(=O)N[C@@H](CCCCN)C(=O)N[C@@H](CCCCN)C(=O)N[C@@H](Cc1ccccc1)C(=O)N[C@@H](CC(C)C)C(=O)N[C@@H](CCCN=C(N)N)C(=O)O [KRIVKRIKKFLR] | MIC [3]: 2.5 µM (≈ 3.96 µg/mL); MIC [4]: ≥ 101 µM; MIC [7]: ≥ 202 µM; MIC [9]: ≥ 202 µM
8 | 8 µM and > 4 µM |  |  | 64 µM and > 32 µM |  | 16 µM (≈ 34.4 µg/mL) | 16 µM (≈ 34.4 µg/mL) | 16 µM (≈ 34.4 µg/mL) | 16 µM (≈ 34.4 µg/mL) | CC[C@H](C)[C@H](NC(=O)[C@H](CCCCN)NC(=O)[C@H](CCCCN)NC(=O)[C@H](CC(C)C)NC(=O)[C@H](CCCN=C(N)N)NC(=O)[C@@H](NC(=O)[C@H](CCCN=C(N)N)NC(=O)[C@@H](NC(=O)[C@H](CCCCN)NC(=O)[C@@H](NC(=O)[C@H](CCCN=C(N)N)NC(=O)[C@H](CC(C)C)NC(=O)[C@H](CCCN=C(N)N)NC(=O)[C@H](CCCN=C(N)N)NC(=O)[C@H](Cc1ccccc1)NC(=O)[C@@H](N)CCCN=C(N)N)[C@@H](C)CC)[C@@H](C)O)[C@@H](C)CC)C(N)=O [RFRRLRIKTRIRLKKI] | 
9 |  |  |  |  |  | 16 µM (≈ 36.8 µg/mL) | 16 µM (≈ 36.8 µg/mL) | 32 µM (≈ 73.6 µg/mL) | 8 µM (≈ 18.4 µg/mL) | CC[C@H](C)[C@H](NC(=O)[C@H](CCCCN)NC(=O)[C@H](Cc1c[nH]c2ccccc12)NC(=O)[C@H](CC(C)C)NC(=O)[C@H](CCCN=C(N)N)NC(=O)[C@H](CCCCN)NC(=O)[C@H](CCCN=C(N)N)NC(=O)[C@@H](NC(=O)[C@H](CCCCN)NC(=O)[C@H](Cc1c[nH]c2ccccc12)NC(=O)[C@H](CCCN=C(N)N)NC(=O)[C@H](CC(C)C)NC(=O)[C@H](CCCN=C(N)N)NC(=O)[C@H](CCCN=C(N)N)NC(=O)[C@H](Cc1ccccc1)NC(=O)[C@@H](N)CCCN=C(N)N)[C@@H](C)O)C(N)=O [RFRRLRWKTRKRLWKI] | 
10 | 16 µM (≈ 37.4 µg/mL) |  |  |  |  |  |  |  |  | CC[C@H](C)[C@H](NC(=O)[C@H](CCC(N)=O)NC(=O)[C@H](CC(C)C)NC(=O)[C@H](CCC(N)=O)NC(=O)[C@@H](NC(=O)[C@H](CCCN=C(N)N)NC(=O)[C@H](Cc1ccccc1)NC(=O)[C@H](Cc1c[nH]c2ccccc12)NC(=O)[C@@H](N)CCCN=C(N)N)[C@@H](C)CC)C(=O)N[C@@H](CCCN=C(N)N)C(=O)N[C@@H](CCCN=C(N)N)C(=O)N[C@@H](Cc1c[nH]c2ccccc12)C(=O)N[C@@H](CCCN=C(N)N)C(=O)N[C@@H](CC(N)=O)C(=O)N[C@@H](CCCN=C(N)N)C(=O)N[C@@H](CCCN=C(N)N)C(N)=O [RWFRIQLQIRRWRNRR] | MIC [19]: 16 µM (≈ 37.4 µg/mL)
